This note sets out measurements from ChEMBL document CHEMBL1147786, “Synthesis and evaluation of a mechanism-based inhibitor of a 3-deoxy-D-arabino heptulosonate 7-phosphate synthase” (Bioorg Med Chem Lett, 2006).

The nature of this test: Inhibition of Escherichia coli DAH7P synthase.

On to `O=C(O)CN(C[C@H](O)[C@@H](O)[C@@H](O)COP(=O)(O)O)CP(=O)(O)O`, for which the IC50 – broadly, the midpoint of a concentration-inhibition curve – came to 6.6 µM.
